Reference: patent US11154515B2, “Pharmaceutical compositions comprising cannabidiol and beta-caryophyllene and methods for their use” (priority 2017, dated 2021)
Where “and” joins values, the source holds several entries; their conditions need not be identical. Identical values can stand only once.

Legend:
[1] = test system: OXA-induced ear edema, ACD mouse model; experiment: Oxazolone-induced allergic contact dermatitis model, ear edema; format: in vivo; conditions: for OXA-induced edema formation: topically applied 1 μM
Description: Prednisolone was solved in 1:1 of DMSO/saline and was administered topically (15-15 μL to the inner and outer surface of the ears). All other test compounds were solved in 96% ethanol. All solutions of all the concentrations were prepared freshly on the first day of every experiment and were stored at 4° C., then shaken properly before the treatments.
Anesthesia was induced by ketamine (Richter Gedeon, Budapest, Hungary) (100 mg/kg i.p., repeated as required) with xylazine (Lavet Ltd., Budapest, Hungary) (5 mg/kg i.m.). Animals were sensitized on two consecutive days by painting 2% oxazolone (50-50 μL, Merck KGaA) on the shaved abdomen. On the 6th day the right ears were smeared with 2% oxazolone (OXA) dissolved in 96% ethanol: 15-15 μL solution was applied on each of the inner and outer surfaces. Control ears were treated with 96% ethanol in the same way. Drug-treated groups were treated with 15-15 μL of drug solution smeared to the inner and outer side of the ears every 4 hrs of the experiment after oxazolone treatment. A schematic of the experimental protocol is provided in FIG. 24 and the experimental groups are defined below. • (a) Group 1: Ethanol-treated Controls: left ear: 96% ethanol, right ear: 2% oxazolone • (b) Group 2: 1 μM CBD • (c) Group 3: 10 μM CBD • (d) Group 4: 1 μM HU101 • (e) Group 5: 10 μMHU101
Ear thickness was measured with an engineer's micrometer, with 0.1 mm accuracy, before challenge with test agents and after the challenge at different time points. Data are expressed as % increase of ear thickness compared to the initial values.
Results are expressed as mean±SEM. Comparisons between different treatment groups were performed using two-way ANOVA followed by Sidak's post hoc test for skin thickness and one-way ANOVA followed by Bonferroni's post hoc test for MPO and vascular leakage. * p<0.05 was considered to be significant.

IL-1β gene expression = IL-1β gene expression (RT-qPCR) in LPS-stimulated RAW 264.7 macrophages; format: cell-based, murine; conditions: for reduction of LPS-induced expression of IL-1β vs untreated, LPS-stimulated controls (FIG. 3B): CBD 0.1 μM, BCP 0.013 μM (p<0.01), combination 0.1 μM + 0.013 μM (7.7:1, p<0.001)
Description: (§1) RAW 264.7 cells were cultured in Dulbecco's Modified Eagle's Medium (high glucose DMEM, Sigma-Aldrich) supplemented with 10% fetal bovine serum (FBS), 1% L-glutamine, 1% Sodium-pyruvate, 1% Penicillin-Streptomycin (culture medium). The cells were maintained in T75 flasks at 37° C. in humidified air containing 5% CO2 in an incubator and passaged every second-third day.
(§2) For drug treatment and LPS stimulation, 200,000 cells/well were seeded in 1.5 mL culture medium in a 6-well plate and incubated to allow attachment to the cell culture plate. After attachment, cells were incubated with various concentrations of CBD (0.1 μM, 0.3 μM, 1 μM, 3 μM, 5 μM, 10 μM, and 30 μM) or BCP (0.001 μM, 0.01 μM, 0.013 μM, 0.1 μM, 0.3 μM, 1 μM, 3 μM, 5 μM, 10 μM, and 100 μM), or vehicle (control) for 2 hrs. After the 2 h incubation, 0.1 μg/mL LPS was added to each well to induce inflammation and cells were incubated with LPS for 24 hrs.
(§3) After the 24 h incubation with LPS, the cells were harvested and gene expression of the pro-inflammatory cytokines interleukin (IL)-1α, IL-1β were measured by quantitative real-time polymerase chain reaction (RT-qPCR) on a Roche Light Cycler 480 QPCR System (Roche Applied Sciences) using the 5′ nuclease assay. Total RNA was isolated using TRIzol (LifeTechnologies), DNase treatment was performed according to the manufacturer's protocol, and then 1 μg of total RNA was reverse-transcribed into cDNA using High Capacity cDNA Kit from Life Technologies Corporation. PCR amplification was performed using the TaqMan primers and probes (assay IDs: Mm00439620_m1 for murine Il1a; Mm00434228_m1 for murine Il1b, Mm00446190_m1 for murine 116, Mm00441263_m1 for murine Cxcl15/Il8). Expression of the housekeeping gene, Gapdh, was used (assay ID: […]) as an internal control. The amount of the transcripts was normalized to those of the housekeeping gene using the ΔCT method. Results are expressed as % decrease in the expression levels of IL1α and IL1β in drug-treated, LPS-stimulated groups compared to the expression of each cytokine gene in the vehicle-treated, LPS-stimulated group (regarded as 100%). All experiments were repeated 2-3 times.
(§4) For statistical analysis, data were analyzed and graphs were plotted using Origin Pro Plus 6.0 software (Microcal, Northampton, Mass., USA) and Student's two-tailed two samples t-test. p<0.05 values were regarded as significant differences.

IL-1α gene expression = IL-1α gene expression (RT-qPCR) in LPS-stimulated RAW 264.7 macrophages; format: cell-based, murine; conditions: for reduction of LPS-induced expression of IL-1α vs untreated, LPS-stimulated controls (FIG. 3A): CBD 0.1 μM, BCP 0.013 μM (p<0.001), combination 0.1 μM + 0.013 μM (7.7:1, p<0.001); for % decrease in IL1α expression: Table 3A experiment; for % Inhibition Alone, IL-1α gene expression: Table 3B/6 experiment
Description: as §1, §2, §3, §4

RAW-Blue™ cells = experiment: MTT cell viability assay, RAW-Blue™ cells; conditions: CBD 30 μM; BCP 300 μM
[2] = Table 3A experiment, single agent 0.1 μM
[3] = Table 3A experiment, single agent 1 μM
[4] = Table 3A experiment, single agent 5 μM
[5] = Table 3A experiment, single agent 10 μM
[6] = Table 3B experiment, single agent 0.1 μM
[7] = Table 3B experiment, single agent 0.3 μM
[8] = Table 3B experiment, single agent 1.0 μM
[9] = Table 3B experiment, single agent 3.0 μM
[10] = Table 3B experiment, single agent 10 μM
[11] = Table 4 Exp. 1: CBD 0.1 μM, BCP 0.013 μM, CBD + BCP 0.1 μM + 0.013 μM
[12] = Table 4 Exp. 2: CBD 1 μM, BCP 0.13 μM, CBD + BCP 1 μM + 0.13 μM

SMILES	reduction of LPS-induced expression of IL-1β vs untreated, LPS-stimulated controls (FIG. 3B) (IL-1β gene expression)	% decrease in IL1β expression (IL-1β gene expression; [2]) [%]	% decrease in IL1β expression (IL-1β gene expression; [3]) [%]	% decrease in IL1β expression (IL-1β gene expression; [4]) [%]	% decrease in IL1β expression (IL-1β gene expression; [5]) [%]	% decrease in IL1β expression (IL-1β gene expression; [6]) [%]	% decrease in IL1β expression (IL-1β gene expression; [7]) [%]	% decrease in IL1β expression (IL-1β gene expression; [8]) [%]	% decrease in IL1β expression (IL-1β gene expression; [9]) [%]	% decrease in IL1β expression (IL-1β gene expression; [10]) [%]	% decrease in IL-1β gene expression (IL-1β gene expression; [11]) [%]	% decrease in IL-1β gene expression (IL-1β gene expression; [12]) [%]	reduction of LPS-induced expression of IL-1α vs untreated, LPS-stimulated controls (FIG. 3A) (IL-1α gene expression)	% decrease in IL1α expression (IL-1α gene expression; single agent 0.1 μM) [%]	% decrease in IL1α expression (IL-1α gene expression; single agent 1 μM) [%]	% decrease in IL1α expression (IL-1α gene expression; single agent 5 μM) [%]	% decrease in IL1α expression (IL-1α gene expression; single agent 10 μM) [%]	% Inhibition Alone, IL-1α gene expression (IL-1α gene expression; single agent 0.1 μM) [%]	% Inhibition Alone, IL-1α gene expression (IL-1α gene expression; single agent 0.3 μM) [%]	% Inhibition Alone, IL-1α gene expression (IL-1α gene expression; single agent 1 μM) [%]	further results
C=C(C)[C@@H]1CCC(C)=C[C@H]1c1c(O)cc(CCCCC)cc1O [CBD, cannabidiol]	did not significantly reduce	19	11	31	33	5.8 ± 1.4	9 ± 3.6	39.2 ± 10.1	85.6 ± 10	92.2 ± 8.4	13	55	did not significantly reduce	13	4	10	21	0	3.2 ± 0.2	34.5 ± 6.2	Effect in ACD mouse model, significance of ear edema difference ([1]; OXA + CBD 1 μM vs. OXA + CBD 10 μM, 56 h): * (* p ≤ 0.05); Effect in ACD mouse model, significance of ear edema difference ([1]; OXA vs. OXA + CBD 1 μM, 24 h): ** (** p ≤ 0.01); OXA-induced edema formation ([1]; 24 hr time-point): significantly prevented; OXA-induced edema formation ([1]; later time-points): only minor; anti-inflammatory effect on OXA-induced edema ([1]; topically applied 10 μM): did not exert any anti-inflammatory effect; % Inhibition CBD Alone (IL-1β gene expression) (IL-1β gene expression; 0.1 μM CBD alone): 5.8 ± 1.4%; % Inhibition CBD Alone (IL-1β gene expression) (IL-1β gene expression; 0.3 μM CBD alone): 9 ± 3.6%; % Inhibition CBD Alone (IL-1β gene expression) (IL-1β gene expression; 1 μM CBD alone): 39.2 ± 10.1%; % Inhibition CBD Alone (IL-1β gene expression) (IL-1β gene expression; 3 μM CBD alone): 85.6 ± 10%; % Inhibition CBD Alone (IL-1β gene expression) (IL-1β gene expression; 10 μM CBD alone): 92.2 ± 8.4%; % Inhibition Alone, IL-1α gene expression (IL-1α gene expression; single agent 3 μM): 55.5 ± 4.7% and 55.5 ± 47%; % decrease in IL-1α gene expression (IL-1α gene expression; [11]): 0%; % decrease in IL-1α gene expression (IL-1α gene expression; [12]): 42%; concentrations with marked anti-inflammatory effects (IL-1α gene expression; applied alone, IL-1α and IL-1β gene expression): ≥ 1 µM; toxicity (as determined by MTT assay) (RAW-Blue™ cells): appeared to induce toxicity
C=C1CC/C=C(\C)CC[C@H]2[C@H]1CC2(C)C [BCP, (E)-beta-caryophyllene]	did significantly reduce	11	19	62	7	1.8 ± 0.2	5.8 ± 1.2	0	0	8.2 ± 4.1	34	0	did significantly reduce	2	18	26	0	1.8 ± 0.2	5.8 ± 1.2	0	% Inhibition BCP Alone (IL-1β gene expression) (IL-1β gene expression; 0.001 μM BCP alone): 0%; % Inhibition BCP Alone (IL-1β gene expression) (IL-1β gene expression; 0.01 μM BCP alone): 0%; % Inhibition BCP Alone (IL-1β gene expression) (IL-1β gene expression; 0.1 μM BCP alone): 1.8 ± 0.2%; % Inhibition BCP Alone (IL-1β gene expression) (IL-1β gene expression; 0.3 μM BCP alone): 5.8 ± 1.2%; % Inhibition BCP Alone (IL-1β gene expression) (IL-1β gene expression; 1 μM BCP alone): 0%; % Inhibition BCP Alone (IL-1β gene expression) (IL-1β gene expression; 3 μM BCP alone): 0%; % Inhibition BCP Alone (IL-1β gene expression) (IL-1β gene expression; 10 μM BCP alone): 8.2 ± 4.1%; % Inhibition BCP Alone (IL-1β gene expression) (IL-1β gene expression; 100 μM BCP alone, * indicates possibly cytotoxicity): *94.2 ± 11.3%; % decrease in IL1β expression (IL-1β gene expression; Table 3B experiment, single agent 0.001 μM): 0%; % decrease in IL1β expression (IL-1β gene expression; Table 3B experiment, single agent 0.01 μM): 0%; % decrease in IL1β expression (IL-1β gene expression; Table 3B experiment, single agent 100 μM): 94.2 ± 11.3%; anti-inflammatory actions when applied alone (IL-1α gene expression; IL-1α and IL-1β gene expression): only minor (if any) anti-inflammatory actions; % Inhibition Alone, IL-1α gene expression (IL-1α gene expression; single agent 0.001 μM): 0%; % Inhibition Alone, IL-1α gene expression (IL-1α gene expression; single agent 0.01 μM): 0%; % Inhibition Alone, IL-1α gene expression (IL-1α gene expression; single agent 3 μM): 0%; % Inhibition Alone, IL-1α gene expression (IL-1α gene expression; single agent 10 μM): 8.2 ± 4.1%; % decrease in IL-1α gene expression (IL-1α gene expression; [11]): 32%; % decrease in IL-1α gene expression (IL-1α gene expression; [12]): 0%
